Data taken from patent publication US20240393292A1, “ALLERGY ANTIGEN AND EPITOPE THEREOF” (HOYU CO., LTD., priority 2019, published 2024).

Tested on: IgE antibodies from patients
Experiment: Wheat epitope mapping (2): overlapping 10-amino-acid peptide fragments shifted by one amino acid;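 as to Rank of partial sequence as epitope binding to IgE antibody: key = sequence deemed particularly important within the common 15-residue sequence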;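 as to epitope sequence binding to IgE antibody, rank (Key/Preferably/More preferably): key of grades: preferably = shorter partial sequence still acting as epitope; more preferably = sequence improving IgE binding; key = particularly important sequence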
Format: binding, human
In short: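 Cellulose-bound 10-mer peptides offset by one residue were probed with patient serum IgE and detected by chemiluminescence. Secondary-antibody-only signals were subtracted per peptide. Residual binding was expressed as % of the parent overlapping peptide, scored as none (<30%), poor (30–<50%), somewhat poor (50–<70%) or retained (≥70%).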

[1] = serum of patient P3 (WDEIA), sequence without X

In the case of “1360 (INVEN; REGION 1..5: note = epitope) [compound 1360]”, the “Epitope sequence binding to IgE antibody, rank of the sequence” value (serum of patient P51 (child, general immediate type allergy to wheat), sequence without X) is reported as “Preferably”.

With “1843 (TVRTLQR; REGION 1..7: note = epitope) [compound 1843]” the “epitope sequence binding to IgE antibody, rank (Key/Preferably/More preferably)” value (serum of patient P9 (WDEIA)) was “Preferably”.

In the case of “2221 (IRNYR; REGION 1..5: note = epitope) [compound 2221]”, the “Epitope sequence binding to IgE antibody, rank of the sequence (Key/Preferably/More preferably)” value (serum of patient P7 (WDEIA), sequence without X) is reported as “Key”.

With “1880 (TVRTLQRT; REGION 1..8: note = epitope) [compound 1880]” the “epitope sequence binding to IgE antibody, rank (Key/Preferably/More preferably)” value (serum of patient P33 (WDEIA)) was “Preferably”.

With “1694 (EAANFTS; REGION 1..7: note = epitope) [compound 1694]” the “Rank of partial sequence as epitope binding to IgE antibody” value (from here on “Rank of partial sequence”) (serum of patient P19 (WDEIA), sequence without X) was “Key”.

“1926 (QQQFPGQQQ; REGION 1..9: note = epitope) [compound 1926]” was tested, and the “epitope sequence binding to IgE antibody, rank (Key/Preferably/More preferably)” value (serum of patient P14 (WDEIA)) was “Preferably”.

“1523 (QVPLVQQQQF; REGION 1..10: note = epitope) [compound 1523]” was tested, and the “Rank of partial sequence” value (serum of patient P10 (WDEIA), sequence without X) was “Further preferably”.

With “1716 (SQVIIM; REGION 1..6: note = epitope) [compound 1716]” the “epitope sequence binding to IgE antibody, rank (Key/Preferably/More preferably)” value (serum of patient P35 (WDEIA)) was “Key”.

For “2251 (SRLLRGIR; REGION 1..8: note = epitope) [compound 2251]”, the “Epitope sequence binding to IgE antibody, rank of the sequence (Key/Preferably/More preferably)” value (serum of patient P52 (child, general immediate type allergy to wheat), sequence without X) was “Key”.

With “1765 (YLKKVGYN; REGION 1..8: note = epitope) [compound 1765]” the “epitope sequence binding to IgE antibody, rank (Key/Preferably/More preferably)” value (serum of patient P30 (WDEIA)) was “Key”.

In the case of “2615 (SLSKRV; REGION 1..6: note = epitope) [compound 2615]”, the “Epitope sequence binding to IgE antibody, rank of the sequence” value (serum of patient P2 (WDEIA), partial sequence) is reported as “Key”.

In the case of “2284 (LGGIDK; REGION 1..6: note = epitope) [compound 2284]”, the “Epitope sequence binding to IgE antibody, rank of the sequence (Key/Preferably/More preferably)” value (serum of patient P26 (WDEIA), sequence without X) is reported as “Preferably”.

For “2260 (SRLLR; REGION 1..5: note = epitope) [compound 2260]”, the “Epitope sequence binding to IgE antibody, rank of the sequence (Key/Preferably/More preferably)” value (serum of patient G1 (adult, general immediate type allergy to wheat), sequence without X) was “Key”.

In the case of “1168 (PGQQQQFPPQ; REGION 1..10: note = epitope) [compound 1168]”, the “Epitope sequence binding to IgE antibody, rank of the sequence” value [1] is reported as “Preferably”.

In the case of “1781 (KEVSSYLKKV; REGION 1..10: note = epitope) [compound 1781]”, the “epitope sequence binding to IgE antibody, rank (Key/Preferably/More preferably)” value (serum of patient G4 (adult, general immediate type allergy to wheat)) is reported as “Key”.

With “2603 (QLVQQLC; REGION 1..7: note = epitope) [compound 2603]” the “Epitope sequence binding to IgE antibody, rank of the sequence” value (serum of patient P54 (child, general immediate type allergy to wheat), partial sequence) was “Key”.

With “1849 (TVRTLQR; REGION 1..7: note = epitope) [compound 1849]” the “epitope sequence binding to IgE antibody, rank (Key/Preferably/More preferably)” value (serum of patient P16 (WDEIA)) was “Preferably”.

In the case of “1371 (QPLPPQQQP; REGION 1..9: note = epitope) [compound 1371]”, the “Epitope sequence binding to IgE antibody, rank of the sequence” value (serum of patient P4 (WDEIA), sequence without X) is reported as “Preferably”.

With “2225 (VSRLLRGIRN; REGION 1..10: note = epitope) [compound 2225]” the “Epitope sequence binding to IgE antibody, rank of the sequence (Key/Preferably/More preferably)” value (serum of patient P17 (WDEIA), sequence without X) was “Key”.

For “1739 (KEAANFT; REGION 1..7: note = epitope) [compound 1739]”, the “epitope sequence binding to IgE antibody, rank (Key/Preferably/More preferably)” value (serum of patient G1 (adult, general immediate type allergy to wheat)) was “Preferably”.

“1750 (KEAANFT; REGION 1..7: note = epitope) [compound 1750]” was tested, and the “epitope sequence binding to IgE antibody, rank (Key/Preferably/More preferably)” value (serum of patient G7 (adult, general immediate type allergy to wheat)) was “Key”.

For “1680 (YNPDKVPF; REGION 1..8: note = epitope) [compound 1680]”, the “Rank of partial sequence” value (serum of patient G6 (adult, general immediate type allergy to wheat), sequence without X) was “More preferably”.

For “1303 (INVEN; REGION 1..5: note = epitope) [compound 1303]”, the “Epitope sequence binding to IgE antibody, rank of the sequence” value [1] was “Preferably”.

In the case of “2248 (IRNYRVAI; REGION 1..8: note = epitope) [compound 2248]”, the “Epitope sequence binding to IgE antibody, rank of the sequence (Key/Preferably/More preferably/Further preferably)” value (serum of patient P50 (child, general immediate type allergy to wheat), sequence without X) is reported as “Key”.
